Experimental data as given in the NIST ThermoML archive (doi:10.1021/je060271a).
Numbers after ± are expanded uncertainties.

Details: 303.15 K, Liquid, Vibrating tube method

CCCCC(=O)OCC(COC(=O)CCCC)(COC(=O)CCCC)COC(=O)CCCC [pentaerythritol tetrapentanoate] gave a mass density (18990 kPa) of 1022.6 ± 1.2 kg/m3, a mass density (19023 kPa) of 1022.8 ± 1.2 kg/m3 and a mass density (19056 kPa) of 1022.6 ± 1.2 kg/m3. It also gave a mass density (19094 kPa) of 1022.8 ± 1.2 kg/m3, a mass density (19127 kPa) of 1022.7 ± 1.2 kg/m3 and a mass density (19159 kPa) of 1022.9 ± 1.2 kg/m3. For the same molecule, the mass density (19198 kPa) was 1022.9 ± 1.2 kg/m3, the mass density (19232 kPa) was 1022.8 ± 1.2 kg/m3 and the mass density (19265 kPa) was 1022.8 ± 1.2 kg/m3. It also gave a mass density (19304 kPa) of 1022.8 ± 1.2 kg/m3, a mass density (19338 kPa) of 1022.9 ± 1.2 kg/m3 and a mass density (19372 kPa) of 1023 ± 1.2 kg/m3. It also gave a mass density (19412 kPa) of 1022.9 ± 1.2 kg/m3, a mass density (19446 kPa) of 1022.9 ± 1.2 kg/m3 and a mass density (19480 kPa) of 1023 ± 1.2 kg/m3. The mass density (19515 kPa) was 1023 ± 1.2 kg/m3, the mass density (19556 kPa) was 1023 ± 1.2 kg/m3 and the mass density (19590 kPa) was 1023.1 ± 1.2 kg/m3. It also gave a mass density (19630 kPa) of 1023 ± 1.2 kg/m3, a mass density (19702 kPa) of 1023.1 ± 1.2 kg/m3 and a mass density (19736 kPa) of 1023.1 ± 1.2 kg/m3. The mass density (19778 kPa) was 1023.2 ± 1.2 kg/m3, the mass density (19813 kPa) was 1023.2 ± 1.2 kg/m3 and the mass density (19856 kPa) was 1023.2 ± 1.2 kg/m3. The mass density (19893 kPa) was 1023.1 ± 1.2 kg/m3, the mass density (19930 kPa) was 1023.2 ± 1.2 kg/m3 and the mass density (19968 kPa) was 1023.2 ± 1.2 kg/m3. For the same molecule, the mass density (20013 kPa) was 1023.3 ± 1.2 kg/m3, the mass density (20051 kPa) was 1023.4 ± 1.2 kg/m3 and the mass density (20090 kPa) was 1023.2 ± 1.2 kg/m3. It also gave a mass density (20134 kPa) of 1023.3 ± 1.2 kg/m3, a mass density (20161 kPa) of 1023.4 ± 1.2 kg/m3 and a mass density (20186 kPa) of 1023.3 ± 1.2 kg/m3. It also gave a mass density (20215 kPa) of 1023.3 ± 1.2 kg/m3, a mass density (20240 kPa) of 1023.4 ± 1.2 kg/m3 and a mass density (20265 kPa) of 1023.5 ± 1.2 kg/m3. It also gave a mass density (20290 kPa) of 1023.6 ± 1.2 kg/m3, a mass density (20321 kPa) of 1023.4 ± 1.2 kg/m3 and a mass density (20346 kPa) of 1023.4 ± 1.2 kg/m3. The mass density (20370 kPa) was 1023.5 ± 1.2 kg/m3, the mass density (20396 kPa) was 1023.5 ± 1.2 kg/m3 and the mass density (20425 kPa) was 1023.6 ± 1.2 kg/m3. The mass density (20451 kPa) was 1023.5 ± 1.2 kg/m3, the mass density (20481 kPa) was 1023.6 ± 1.2 kg/m3 and the mass density (20506 kPa) was 1023.5 ± 1.2 kg/m3. It also gave a mass density (20532 kPa) of 1023.6 ± 1.2 kg/m3, a mass density (20561 kPa) of 1023.6 ± 1.2 kg/m3 and a mass density (20587 kPa) of 1023.6 ± 1.2 kg/m3. It also gave a mass density (20613 kPa) of 1023.7 ± 1.2 kg/m3, a mass density (20644 kPa) of 1023.6 ± 1.2 kg/m3 and a mass density (20671 kPa) of 1023.6 ± 1.2 kg/m3. The mass density (20697 kPa) was 1023.6 ± 1.2 kg/m3, the mass density (20723 kPa) was 1023.7 ± 1.2 kg/m3 and the mass density (20754 kPa) was 1023.6 ± 1.2 kg/m3. The mass density (20780 kPa) was 1023.7 ± 1.2 kg/m3, the mass density (20806 kPa) was 1023.8 ± 1.2 kg/m3 and the mass density (20837 kPa) was 1023.8 ± 1.2 kg/m3. For the same molecule, the mass density (20864 kPa) was 1023.9 ± 1.2 kg/m3, the mass density (20890 kPa) was 1023.7 ± 1.2 kg/m3 and the mass density (20920 kPa) was 1023.8 ± 1.2 kg/m3. The mass density (20947 kPa) was 1023.7 ± 1.2 kg/m3, the mass density (20974 kPa) was 1023.8 ± 1.2 kg/m3 and the mass density (21007 kPa) was 1023.7 ± 1.2 kg/m3. The mass density (21030 kPa) was 1023.9 ± 1.2 kg/m3, the mass density (21062 kPa) was 1023.9 ± 1.2 kg/m3 and the mass density (21089 kPa) was 1023.8 ± 1.2 kg/m3. The mass density (21122 kPa) was 1023.8 ± 1.2 kg/m3, the mass density (21149 kPa) was 1023.9 ± 1.2 kg/m3 and the mass density (21176 kPa) was 1024 ± 1.2 kg/m3. For the same molecule, the mass density (21208 kPa) was 1024 ± 1.2 kg/m3, the mass density (21236 kPa) was 1024 ± 1.2 kg/m3 and the mass density (21263 kPa) was 1023.8 ± 1.2 kg/m3. It also gave a mass density (21291 kPa) of 1024 ± 1.2 kg/m3, a mass density (21324 kPa) of 1024.1 ± 1.2 kg/m3 and a mass density (21351 kPa) of 1024.1 ± 1.2 kg/m3. For the same molecule, the mass density (21384 kPa) was 1024.1 ± 1.2 kg/m3, the mass density (21412 kPa) was 1024 ± 1.2 kg/m3 and the mass density (21440 kPa) was 1024.1 ± 1.2 kg/m3. The mass density (21472 kPa) was 1024.1 ± 1.2 kg/m3, the mass density (21500 kPa) was 1024.2 ± 1.2 kg/m3 and the mass density (21528 kPa) was 1024.1 ± 1.2 kg/m3. For the same molecule, the mass density (21557 kPa) was 1024.1 ± 1.2 kg/m3, the mass density (21593 kPa) was 1024.2 ± 1.2 kg/m3 and the mass density (21622 kPa) was 1024.2 ± 1.2 kg/m3. For the same molecule, the mass density (21658 kPa) was 1024.3 ± 1.2 kg/m3, the mass density (21688 kPa) was 1024.2 ± 1.2 kg/m3 and the mass density (21718 kPa) was 1024.4 ± 1.2 kg/m3. For the same molecule, the mass density (21754 kPa) was 1024.3 ± 1.2 kg/m3, the mass density (21784 kPa) was 1024.2 ± 1.2 kg/m3 and the mass density (21814 kPa) was 1024.3 ± 1.2 kg/m3. It also gave a mass density (21844 kPa) of 1024.4 ± 1.2 kg/m3, a mass density (21881 kPa) of 1024.2 ± 1.2 kg/m3 and a mass density (21911 kPa) of 1024.4 ± 1.2 kg/m3. The mass density (21942 kPa) was 1024.4 ± 1.2 kg/m3, the mass density (21979 kPa) was 1024.4 ± 1.2 kg/m3 and the mass density (22009 kPa) was 1024.5 ± 1.2 kg/m3. For the same molecule, the mass density (22046 kPa) was 1024.4 ± 1.2 kg/m3, the mass density (22077 kPa) was 1024.5 ± 1.2 kg/m3 and the mass density (22109 kPa) was 1024.4 ± 1.2 kg/m3. The mass density (22140 kPa) was 1024.5 ± 1.2 kg/m3, the mass density (22178 kPa) was 1024.5 ± 1.2 kg/m3 and the mass density (22210 kPa) was 1024.6 ± 1.2 kg/m3. For the same molecule, the mass density (22242 kPa) was 1024.6 ± 1.2 kg/m3, the mass density (22279 kPa) was 1024.6 ± 1.2 kg/m3 and the mass density (22311 kPa) was 1024.6 ± 1.2 kg/m3. It also gave a mass density (22343 kPa) of 1024.7 ± 1.2 kg/m3, a mass density (22375 kPa) of 1024.6 ± 1.2 kg/m3 and a mass density (22414 kPa) of 1024.6 ± 1.2 kg/m3. For the same molecule, the mass density (22446 kPa) was 1024.6 ± 1.2 kg/m3, the mass density (22478 kPa) was 1024.6 ± 1.2 kg/m3 and the mass density (22517 kPa) was 1024.7 ± 1.2 kg/m3. The mass density (22550 kPa) was 1024.8 ± 1.2 kg/m3, the mass density (22583 kPa) was 1024.7 ± 1.2 kg/m3 and the mass density (22622 kPa) was 1024.8 ± 1.2 kg/m3. It also gave a mass density (22656 kPa) of 1024.7 ± 1.2 kg/m3, a mass density (22688 kPa) of 1024.7 ± 1.2 kg/m3 and a mass density (22722 kPa) of 1024.8 ± 1.2 kg/m3. It also gave a mass density (22761 kPa) of 1024.8 ± 1.2 kg/m3, a mass density (22794 kPa) of 1024.9 ± 1.2 kg/m3 and a mass density (22828 kPa) of 1024.9 ± 1.2 kg/m3. For the same molecule, the mass density (22868 kPa) was 1024.9 ± 1.2 kg/m3, the mass density (22901 kPa) was 1024.9 ± 1.2 kg/m3 and the mass density (22942 kPa) was 1024.9 ± 1.2 kg/m3. For the same molecule, the mass density (22975 kPa) was 1024.9 ± 1.2 kg/m3, the mass density (23009 kPa) was 1024.9 ± 1.2 kg/m3 and the mass density (23043 kPa) was 1025.1 ± 1.2 kg/m3. It also gave a mass density (23084 kPa) of 1025 ± 1.2 kg/m3, a mass density (23119 kPa) of 1025.1 ± 1.2 kg/m3 and a mass density (23154 kPa) of 1025 ± 1.2 kg/m3. The mass density (23195 kPa) was 1025 ± 1.2 kg/m3, the mass density (23230 kPa) was 1025.1 ± 1.2 kg/m3 and the mass density (23265 kPa) was 1025.2 ± 1.2 kg/m3. For the same molecule, the mass density (23307 kPa) was 1025.2 ± 1.2 kg/m3, the mass density (23342 kPa) was 1025.2 ± 1.2 kg/m3 and the mass density (23378 kPa) was 1025.2 ± 1.2 kg/m3. It also gave a mass density (23413 kPa) of 1025.2 ± 1.2 kg/m3, a mass density (23456 kPa) of 1025.2 ± 1.2 kg/m3 and a mass density (23492 kPa) of 1025.3 ± 1.2 kg/m3. The mass density (23534 kPa) was 1025.2 ± 1.2 kg/m3, the mass density (23572 kPa) was 1025.1 ± 1.2 kg/m3 and the mass density (23609 kPa) was 1025.3 ± 1.2 kg/m3. For the same molecule, the mass density (23646 kPa) was 1025.4 ± 1.2 kg/m3, the mass density (23680 kPa) was 1025.3 ± 1.2 kg/m3 and the mass density (23726 kPa) was 1025.4 ± 1.2 kg/m3. For the same molecule, the mass density (23761 kPa) was 1025.5 ± 1.2 kg/m3, the mass density (23798 kPa) was 1025.6 ± 1.2 kg/m3 and the mass density (23843 kPa) was 1025.5 ± 1.2 kg/m3. It also gave a mass density (23878 kPa) of 1025.4 ± 1.2 kg/m3, a mass density (23926 kPa) of 1025.5 ± 1.2 kg/m3 and a mass density (23961 kPa) of 1025.6 ± 1.2 kg/m3. The mass density (23996 kPa) was 1025.5 ± 1.2 kg/m3, the mass density (24033 kPa) was 1025.7 ± 1.2 kg/m3 and the mass density (24084 kPa) was 1025.5 ± 1.2 kg/m3. The mass density (24123 kPa) was 1025.6 ± 1.2 kg/m3, the mass density (24162 kPa) was 1025.7 ± 1.2 kg/m3 and the mass density (24202 kPa) was 1025.6 ± 1.2 kg/m3. It also gave a mass density (24250 kPa) of 1025.7 ± 1.2 kg/m3, a mass density (24285 kPa) of 1025.8 ± 1.2 kg/m3 and a mass density (24316 kPa) of 1025.7 ± 1.2 kg/m3. The mass density (24353 kPa) was 1025.8 ± 1.2 kg/m3 and the mass density (24383 kPa) was 1025.8 ± 1.2 kg/m3.
